Measured values from PubChem BioAssay (NCI).
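A five-concentration, 48-hour dose response in 96-well plates underlies each endpoint, interpolated linearly between surrounding concentrations. GI50 = concentration required for 50% inhibition of growth. At the TGI there is no net growth.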

Tests used:
Experiment in all cases: inhibition of tumour cell growth, NCI panel, 48 h
U251 CNS = test system: U251 CNS
K-562 leukemia = test system: K-562 leukemia
UO-31 renal = test system: UO-31 renal
SK-MEL-28 melanoma = test system: SK-MEL-28 melanoma
NCI-H226 lung = test system: NCI-H226 lung
SW-620 colon = test system: SW-620 colon

Row | Structure (SMILES) | TGI (U251 CNS) [µM] | TGI (K-562 leukemia) [µM] | TGI (UO-31 renal) [µM] | TGI (SK-MEL-28 melanoma) [µM] | TGI (NCI-H226 lung) [µM] | TGI (SW-620 colon) [µM] | GI50 (K-562 leukemia) [µM]
1 | O=c1oc2ccccc2c(O)c1C(c1ccc2ccccc2c1)c1c(O)c2ccccc2oc1=O | 39.2 | > 100 | 35.4 | 80.1 | 67.9 | 87.7 | –
2 | O=C(/C=C/c1c(O)c2ccccc2[nH]c1=O)CC(=O)C(=O)Nc1cccc(O)c1 | > 100 | > 100 | > 100 | > 100 | > 100 | > 100 | –
3 | COc1ccc(OC)c2c(=O)cc(-c3ccccc3)[nH]c12 | > 100 | > 100 | > 100 | > 100 | > 100 | > 100 | –
4 | CC(=O)/C(=C/N1C(=O)CC(=O)NC1=S)C(=O)Nc1ccccc1C | > 100 | – | > 100 | > 100 | > 100 | 93.9 | –
5 | NC(=Nc1ccc(Cl)c(Cl)c1)c1ccccc1N | > 100 | 41.9 | > 100 | 52.2 | > 100 | > 100 | –
6 | CCOC(=O)C(NC(=O)NCc1ccc(F)cc1)C(F)(F)F (stereo unspecified) | > 100 | > 100 | > 100 | > 100 | – | > 100 | –
7 | CC1=CC[C@@]2(C)[C@@H]([C@@H]1C)[C@H]1CC[C@@H]3[C@@]4(C)CC[C@H](O)C(C)(C)[C@@H]4CC[C@@]3(C)[C@]1(C)C[C@@H]2O | 23.1 | > 100 | > 100 | 13.9 | > 100 | 98.6 | –
8 | Cc1ccc(-c2cnc(NC3OC(COC(=O)c4ccccc4)C(OC(=O)c4ccccc4)C(OC(=O)c4ccccc4)C3OC(=O)c3ccccc3)s2)cc1 (stereo unspecified) | > 100 | – | > 100 | > 100 | > 100 | > 100 | –
9 | COc1cc(/C=C2\CCC(C)c3c2nc(N)c(C#N)c3-c2cc(OC)c(OC)c(OC)c2)cc(OC)c1OC (stereo unspecified) | > 100 | > 100 | – | > 100 | – | > 100 | –
10 | O=S(=O)([N-]c1nc2ccccc2nc1-[n+]1ccccc1)c1ccccc1 | – | > 100 | > 100 | – | > 100 | – | –
11 | COC(=O)C1=C(C(=O)OC)C(C(=O)c2ccccc2)N2N=C(c3ccc(Cl)cc3)C=CC12 (stereo unspecified) | > 100 | > 100 | > 100 | > 100 | 66.1 | > 100 | –
12 | O=C1CC(n2cccc2)c2cc(Br)sc21 (stereo unspecified) | > 100 | > 100 | > 100 | > 100 | > 100 | > 100 | –
13 | COc1ccc(-c2cc(=O)c3c(O)c(OC)c(O)cc3o2)cc1O | > 100 | > 52.7 | > 100 | > 100 | > 90.8 | > 100 | –
14 | C/C(=C\c1csc(C)n1)[C@@H]1C[C@@H]2O[C@]2(C)CCC[C@H](C)[C@H](O)[C@@H](C)C(=O)C(C)(C)[C@@H](O)CC(=O)O1 (tested in a mixture with another compound) | > 1 | > 1 | > 1 | > 1 | > 1 | > 1 | 0.0262
15 | Clc1cccc(Cl)c1C1SCc2nc3cc4ccccc4cc3n21 (stereo unspecified) | > 100 | > 100 | > 100 | > 100 | > 100 | > 100 | –
16 | NC(=O)CC1(O)C=CC(=O)C=C1 | > 100 | > 100 | > 100 | > 100 | > 100 | > 100 | –
17 | CN(C)Cc1cc(C(=O)/C=C/c2c(Cl)cccc2Cl)cc(CN(C)C)c1O | 23.4 | 13.4 | 8.85 | 20.9 | 32.4 | 13.9 | –
18 | Cc1nc2c(n1CCCl)C(=O)c1ccccc1C2=O | 62.4 | > 100 | – | > 100 | 50.1 | 88.9 | –
19 | Cc1cc(C)n(C(=O)C(C)Sc2nnc(SC(C)C(=O)n3nc(C)cc3C)s2)n1 (stereo unspecified) | > 100 | > 100 | > 100 | > 100 | > 100 | > 100 | –
20 | O=c1c2cc([N+](=O)[O-])cnc2sn1-c1ccc(Oc2ccccc2)cc1 | > 100 | – | > 100 | > 100 | > 100 | > 100 | –
